In US10669283B2, “Compound and pharmacologically acceptable salt thereof” (MEIJI SEIKA PHARMA CO., LTD., priority 2016, dated 2020):
pIC50: −log10 of the molar value.

System: PDE4
Experiment: PDE4 inhibition, scintillation proximity assay (SPA);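 on PDE4 Inhibitory Activity (concentration for the inhibition rate of 50%): A below 100 nM B 100 to below 1000 nM C 1000 nM or more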
Assay type: biochemical
Conditions: scintillation proximity assay (SPA); evaluated as classes A, B, C; read-out: PDE4 Inhibitory Activity (concentration for the inhibition rate of 50%)
Experimental: The PDE4 inhibitory activity was measured using scintillation proximity assay (SPA) as follows. A sample compound dissolved in dimethyl sulfoxide was diluted 1:10 in reaction buffer solution which contained 50 mM of Tris-HCl with pH 7.4, 8.3 mM of MgCl2, 1.7 mM of EGTA, and 3 mg/mL of bovine serum albumin (BSA). Then, 10 μL of the diluted solution was added in a 96-well assay plate. Moreover, 50 μL of PDE4 diluted 1:375 in the reaction buffer solution was added, and then 40 μL of [2,8-^3H]-adenosine-3′,5′-cyclic phosphate triethylammonium salt diluted 1:1000 in the reaction buffer solution was added. The mixture was allowed to stand at room temperature for 120 minutes. Thereafter, […] of RNA binding YSi-SPA beads suspension containing ZnSO4 was added and the mixture was allowed to stand at room temperature for 15 minutes, followed by adsorption of the enzyme reaction product to the beads. After that, the radioactivity was measured using a liquid scintillation counter for a 96-well plate. The mixture without the enzyme preparation added but only the reaction buffer solution added is a blank, and the mixture with the enzyme preparation added and only dimethyl sulfoxide added instead of the sample solution is a control.

`O=C(O)COc1cc(-c2nccs2)c2oc(N3CC4CCC(C3)N4)nc2c1` [Example 74, 2-((2-(3,8-Diazabicyclo[3.2.1]octan-3-yl)-7-(thiazol-2-yl)benzo[d]oxazol-5-yl)oxy)acetic acid] and `CC(=O)c1cc(-c2nccs2)c2oc(N3CC4CCC(C3)N4)nc2c1` [Example 108, 1-(2-(3,8-Diazabicyclo[3.2.1]octan-3-yl)-7-(thiazol-2-yl)benzo[d]oxazol-5-yl)ethan-1-one] cannot be ordered by pIC50: over 7.00 for the first, over 7.00 for the second.

`CCOC(=O)c1cc(-c2nccs2)c2oc(N3CC4CC(C3)N4)nc2c1OC(F)(F)F` [Example 187, Ethyl 2-(3,6-diazabicyclo[3.1.1]heptan-3-yl)-7-(thiazol-2-yl)-4-(trifluoromethoxy)benzo[d]oxazole-5-carboxylate] and `CCOC(=O)c1cc(-c2nccs2)c2oc(N3CC4CCC(C3)N4)nc2c1OC(F)(F)F` [Example 186, Ethyl 2-(3,8-diazabicyclo[3.2.1]octan-3-yl)-7-(thiazol-2-yl)-4-(trifluoromethoxy)benzo[d]oxazole-5-carboxylate] cannot be ordered by pIC50: over 7.00 for the first, over 7.00 for the second.

First: OC(O)(c1cc(-c2nccs2)c2oc(N3CC4CC(C3)N4)nc2c1)C(F)(F)F [Example 158, 1-(2-(3,6-Diazabicyclo[3.1.1]heptan-3-yl)-7-(thiazol-2-yl)benzo[d]oxazol-5-yl)-2,2,2-trifluoroethane-1,1-diol]
Second: CC(O)(c1ccc(-c2nccs2)c2oc(N3CC4CC(C3)N4)nc12)C(F)(F)F (stereo not drawn) [Example 270, 2-(2-(3,6-Diazabicyclo[3.1.1]heptan-3-yl)-7-(thiazol-2-yl)benzo[d]oxazol-4-yl)-1,1,1-trifluoropropan-2-ol]
The pIC50 of the first is lower: 6.00 to 7.00 for the first, over 7.00 for the second.

First: FC(F)(F)c1c(Cl)cc(-n2cccn2)c2oc(N3CC4COCC(C3)N4)nc12 [Example 18, 7-(5-Chloro-7-(1H-pyrazol-1-yl)-4-(trifluoromethyl)benzo[d]oxazol-2-yl)-3-oxa-7,9-diazabicyclo[3.3.1]nonane]
Second: FC(F)(F)c1c(Cl)cc(-c2nccs2)c2oc(N3CC4COCC(C3)N4)nc12 [Example 19, 7-(5-Chloro-7-(thiazol-2-yl)-4-(trifluoromethyl)benzo[d]oxazol-2-yl)-3-oxa-7,9-diazabicyclo[3.3.1]nonane]
The pIC50 of the first is lower: 6.00 to 7.00 for the first, over 7.00 for the second. The second is the more potent here.

`CC(C)(CO)Oc1ccc(-c2nccs2)c2oc(N3CC4CC(C3)N4)nc12` [Example 268, 2-((2-(3,6-Diazabicyclo[3.1.1]heptan-3-yl)-7-(thiazol-2-yl)benzo[d]oxazol-4-yl)oxy)-2-methylpropan-1-ol] and `CC(O)C(F)(F)Oc1ccc(-c2nccs2)c2oc(N3CC4CC(C3)N4)nc12` (racemic) [Example 250, 1-((2-(3,6-Diazabicyclo[3.1.1]heptan-3-yl)-7-(thiazol-2-yl)benzo[d]oxazol-4-yl)oxy)-1,1-difluoropropan-2-ol] cannot be ordered by pIC50: over 7.00 for the first, over 7.00 for the second.

`OC(c1cc(-c2nccs2)c2oc(N3CC4CCC(C3)N4)nc2c1OC(F)(F)F)C(F)F` (stereo not drawn) [Example 275, 1-(2-(3,8-Diazabicyclo[3.2.1]octan-3-yl)-7-(thiazol-2-yl)-4-(trifluoromethoxy)benzo[d]oxazol-5-yl)-2,2-difluoroethan-1-ol] and `OC(c1cc(-c2nccs2)c2oc(N3CC4CCC(C3)N4)nc2c1C(F)(F)F)C(F)F` (stereo not drawn) [Example 183, 1-(2-(3,8-Diazabicyclo[3.2.1]octan-3-yl)-7-(thiazol-2-yl)-4-(trifluoromethyl)benzo[d]oxazol-5-yl)-2,2-difluoroethan-1-ol] cannot be ordered by pIC50: over 7.00 for the first, over 7.00 for the second.

`COC(c1ccc(-c2nccs2)c2oc(N3CC4CCC(C3)N4)nc12)C(F)(F)F` (stereo not drawn) [Example 222, 2-(3,8-Diazabicyclo[3.2.1]octan-3-yl)-7-(thiazol-2-yl)-4-(2,2,2-trifluoro-1-methoxyethyl)benzo[d]oxazole] and `COC(c1ccc(-c2nccs2)c2oc(N3CC4CC(C3)N4)nc12)C(F)(F)F` (stereo not drawn) [Example 122, 2-(3,6-Diazabicyclo[3.1.1]heptan-3-yl)-7-(thiazol-2-yl)-4-(2,2,2-trifluoro-1-methoxyethyl)benzo[d]oxazole] cannot be ordered by pIC50: over 7.00 for the first, over 7.00 for the second.

`c1csc(-c2ccc(OC3CCCOC3)c3nc(N4CC5CCC(C4)N5)oc23)n1` (stereo not drawn) [Example 262, 2-(3,8-Diazabicyclo[3.2.1]octan-3-yl)-4-((tetrahydro-2H-pyran-3-yl)oxy)-7-(thiazol-2-yl)benzo[d]oxazole] and `N#CCOc1ccc(-c2nccs2)c2oc(N3CC4CCC(C3)N4)nc12` [Example 82, 2-((2-(3,8-Diazabicyclo[3.2.1]octan-3-yl)-7-(thiazol-2-yl)benzo[d]oxazol-4-yl)oxy)acetonitrile] cannot be ordered by pIC50: over 7.00 for the first, over 7.00 for the second.

`C[S+]([O-])c1cc(-c2nccs2)c2oc(N3CC4CCC(C3)N4)nc2c1` (stereo not drawn) [Example 42, 2-(3,8-Diazabicyclo[3.2.1]octan-3-yl)-5-(methylsulfinyl)-7-(thiazol-2-yl)benzo[d]oxazole] and `CS(=O)(=O)c1cc(-c2nccs2)c2oc(N3CC4CCC(C3)N4)nc2c1` [Example 45, 2-(3,8-Diazabicyclo[3.2.1]octan-3-yl)-5-(methylsulfonyl)-7-(thiazol-2-yl)benzo[d]oxazole] cannot be ordered by pIC50: over 7.00 for the first, over 7.00 for the second.

`CCOC(=O)c1ccc(-c2nccs2)c2oc(N3CC4CCCC(C3)N4)nc12` [Example 114, Ethyl 2-(3,9-diazabicyclo[3.3.1]nonan-3-yl)-7-(thiazol-2-yl) benzo[d]oxazole-4-carboxylate] and `FC(F)(F)c1ccc(-c2nccs2)c2oc(N3CC4CCCC(C3)N4)nc12` [Example 33, 2-(3,9-Diazabicyclo[3.3.1]nonan-3-yl)-7-(thiazol-2-yl)-4-(trifluoromethyl)benzo[d]oxazole] cannot be ordered by pIC50: over 7.00 for the first, over 7.00 for the second.

`O=C(c1ccc(-c2nccs2)c2oc(N3CC4CCC(C3)N4)nc12)N1CCCCC1` [Example 117, (2-(3,8-Diazabicyclo[3.2.1]octan-3-yl)-7-(thiazol-2-yl)benzo[d]oxazol-4-yl)(piperidin-1-yl)methanone] and `Oc1ccc(-c2nccs2)c2oc(N3CC4CC(C3)N4)nc12` [Example 79, 2-(3,6-Diazabicyclo[3.1.1]heptan-3-yl)-7-(thiazol-2-yl)benzo[d]oxazol-4-ol] cannot be ordered by pIC50: over 7.00 for the first, over 7.00 for the second.

`O=S1(=O)CCC(Oc2ccc(-c3nccs3)c3oc(N4CC5CC(C4)N5)nc23)CC1` [Example 314, 4-((2-(3,6-Diazabicyclo[3.1.1]heptan-3-yl)-7-(thiazol-2-yl)benzo[d]oxazol-4-yl)oxy)tetrahydro-2H-thiopyran 1,1-dioxide] and `COC(C)(c1ccc(-c2nccs2)c2oc(N3CC4CC(C3)N4)nc12)C(F)(F)F` (stereo not drawn) [Example 235, 2-(3,6-Diazabicyclo[3.1.1]heptan-3-yl)-7-(thiazol-2-yl)-4-(1,1,1-trifluoro-2-methoxypropan-2-yl)benzo[d]oxazole] cannot be ordered by pIC50: over 7.00 for the first, over 7.00 for the second.

`COCCOC(c1ccc(-c2nccs2)c2oc(N3CC4CC(C3)N4)nc12)C(F)(F)F` (stereo not drawn) [Example 229, 2-(3,6-Diazabicyclo[3.1.1]heptan-3-yl)-7-(thiazol-2-yl)-4-(2,2,2-trifluoro-1-(2-methoxyethoxy)ethyl)benzo[d]oxazole] and `CCOC(=O)c1cc(-c2nccs2)c2oc(N3CC4CC(C3)N4)nc2c1C(F)(F)F` [Example 165, Ethyl 2-(3,6-diazabicyclo[3.1.1]heptan-3-yl)-7-(thiazol-2-yl)-4-(trifluoromethyl)benzo[d]oxazole-5-carboxylate] cannot be ordered by pIC50: over 7.00 for the first, over 7.00 for the second.

`CC(O)(c1cc(-c2nccs2)c2oc(N3CC4CC(C3)N4)nc2c1OC(F)(F)F)C(F)(F)F` (stereo not drawn) [Example 216, 2-(2-(3,6-Diazabicyclo[3.1.1]heptan-3-yl)-7-(thiazol-2-yl)-4-(trifluoromethoxy)benzo[d]oxazol-5-yl)-1,1,1-trifluoropropan-2-ol] and `COC(C)(c1cc(-c2nccs2)c2oc(N3CC4CCC(C3)N4)nc2c1OC(F)(F)F)C(F)(F)F` (stereo not drawn) [Example 215, 2-(3,8-Diazabicyclo[3.2.1]octan-3-yl)-7-(thiazol-2-yl)-5-(1,1,1-trifluoro-2-methoxypropan-2-yl)-4-(trifluoromethoxy)benzo[d]oxazole] cannot be ordered by pIC50: over 7.00 for the first, over 7.00 for the second.

`CC(C)(O)c1cc(-c2nccs2)c2oc(N3CC4CC(C3)N4)nc2c1C(F)(F)F` [Example 178, 2-(2-(3,6-Diazabicyclo[3.1.1]heptan-3-yl)-7-(thiazol-2-yl)-4-(trifluoromethyl)benzo[d]oxazol-5-yl)propan-2-ol] and `COC(C)c1cc(-c2nccs2)c2oc(N3CC4CC(C3)N4)nc2c1` (stereo not drawn) [Example 111, 2-(3,6-Diazabicyclo[3.1.1]heptan-3-yl)-5-(1-methoxyethyl)-7-(thiazol-2-yl)benzo[d]oxazole] cannot be ordered by pIC50: over 7.00 for the first, over 7.00 for the second.

In the case of `CCOC(=O)c1cc(-c2nccs2)c2oc(N3CC4COCC(C3)N4)nc2c1` [Example 88, Ethyl 2-(3-oxa-7,9-diazabicyclo[3.3.1]nonan-7-yl)-7-(thiazol-2-yl)benzo[d]oxazole-5-carboxylate], the pIC50 was 6.00 to 7.00.

Same assay, conditions: scintillation proximity assay; class symbols; read-out: PDE4 Inhibitory Activity

`ON1C2CC1CN(c1nc3c(OC(F)(F)F)ccc(-c4nccs4)c3o1)C2` [Example 380, 3-(7-(thiazol-2-yl)-4-(trifluoro-methoxy)benzo[d]oxazol-2-yl)-3,6-diazabicyclo [3.1.1]heptan-6-ol] and `CN(C)C(=O)C(F)(F)Oc1ccc(-c2nccs2)c2oc(N3CC4CC(C3)N4)nc12` [Example 408, 2-((2-(3,6-diazabicyclo [3.1.1]heptan-3-yl)-7-(thiazol-2-yl)benzo[d]oxazol-4-yl)oxy)-2,2-difluoro-N,N-dimethyl-acetamide] cannot be ordered by pIC50: over 7.00 for the first, over 7.00 for the second.
